In patent US12655116B2, “Substituted isophthalic acid diamides” (Bayer Aktiengesellschaft, priority 2020, dated 2026):

Key:
[1] = system: ABUTH; experiment: Pre-emergence herbicidal action against ABUTH; assay type: in vivo, Abutilon theophrasti; conditions: Abutilon theophrasti, 504 h
Method in brief: (§1)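 Sandy loam pots, seeds covered with soil, then surface-treated with WP or EC formulations at 600–800 l/ha water plus 0.2% wetting agent. Greenhouse, 3 weeks. Percent damage vs untreated controls.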

[2] = system: ALOMY; experiment: Pre-emergence herbicidal action against ALOMY; assay type: in vivo, Alopecurus myosuroides; conditions: Alopecurus myosuroides, 504 h, pre-emergence
Method in brief: as §1

[3] = system: AMARE; experiment: Pre-emergence herbicidal action against AMARE; assay type: in vivo, Amaranthus retroflexus; conditions: Amaranthus retroflexus, 504 h, scored visually after 3 weeks vs untreated controls, 100% = plants have died, 0% = like control plants
Method in brief: as §1

[4] = system: AVEFA; experiment: Pre-emergence herbicidal action against AVEFA; assay type: in vivo, Avena fatua; conditions: Avena fatua, 504 h, pre-emergence
Method in brief: as §1

[5] = system: ECHCG; experiment: Pre-emergence herbicidal action against ECHCG; assay type: in vivo, Echinochloa crus-galli; conditions: Echinochloa crus-galli, 504 h
Method in brief: as §1

[6] = system: HORMU; experiment: Pre-emergence herbicidal action against HORMU; assay type: in vivo, Hordeum murinum; conditions: Hordeum murinum, 504 h; 80 g/ha, pre-emergence
Source text: Seeds of monocotyledonous and dicotyledonous weed plants and crop plants are laid out in sandy loam soil in wood-fiber pots and covered with soil. The compounds of the invention, formulated in the form of wettable powders (WP) or as emulsion concentrates (EC), are then applied to the surface of the covering soil in the form of an aqueous suspension or emulsion at a water application rate equivalent to 600 to 800 l/ha, with addition of 0.2% wetting agent. After the treatment, the pots are placed in a greenhouse and kept under good growth conditions for the trial plants. The damage to the test plants is scored visually after a test period of 3 weeks by comparison with untreated controls (herbicidal activity in percent (%): 100% activity=the plants have died, 0% activity=like control plants). […] The tables below illustrate, in an illustrative manner, the post-emergence herbicidal action of the compounds of the invention, the herbicidal activity being stated in percent.

[7] = system: LOLRI; experiment: Pre-emergence herbicidal action against LOLRI; assay type: in vivo, Lolium rigidum; conditions: Lolium rigidum, 504 h, 80 g/ha
Method in brief: as §1

[8] = system: MATIN; experiment: Pre-emergence herbicidal action against MATIN; assay type: in vivo, Matricaria inodora; conditions: Tripleurospermum inodorum, 504 h
Method in brief: as §1

[9] = system: SETVI; experiment: Pre-emergence herbicidal action against SETVI; assay type: in vivo, Setaria viridis; conditions: Setaria viridis, 504 h
Method in brief: as §1

[10] = system: STEME; experiment: Pre-emergence herbicidal action against STEME; assay type: in vivo, Stellaria media; conditions: Stellaria media, 504 h
Method in brief: as §1

[11] = system: VERPE; experiment: Pre-emergence herbicidal action against VERPE; assay type: in vivo, Veronica persica; conditions: Veronica persica, 504 h, dosage 80 g/ha
Method in brief: as §1

[12] = system: VIOTR; experiment: Pre-emergence herbicidal action against VIOTR; assay type: in vivo, Viola tricolor; conditions: Viola tricolor, 504 h
Method in brief: as §1

[13] = system: DIGSA; experiment: Pre-emergence herbicidal action against DIGSA; assay type: in vivo, Digitaria sanguinalis; conditions: Digitaria sanguinalis, 504 h
Method in brief: as §1

[14] = system: ABUTH; experiment: Post-emergence herbicidal action against ABUTH; assay type: in vivo, Abutilon theophrasti; conditions: Abutilon theophrasti, 504 h, visual assessment about 3 weeks after treatment vs untreated controls
Method in brief: (§2)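 Visual % rating (0% = as untreated, 100% = dead) ~3 wk after spraying one-leaf-stage plants grown in sandy loam; WP/EC in water at 600–800 l/ha, 0.2% wetting agent.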

[15] = system: ALOMY; experiment: Post-emergence herbicidal action against ALOMY; assay type: in vivo, Alopecurus myosuroides; conditions: Alopecurus myosuroides, 504 h, dosage 20 g/ha, visual assessment about 3 weeks after treatment vs untreated controls
Method in brief: as §2

[16] = system: AMARE; experiment: Post-emergence herbicidal action against AMARE; assay type: in vivo, Amaranthus retroflexus; conditions: Amaranthus retroflexus, 504 h, 20 g/ha, visual assessment about 3 weeks after treatment, 100% = plants have died, 0% = like control plants
Method in brief: as §2

[17] = system: AVEFA; experiment: Post-emergence herbicidal action against AVEFA; assay type: in vivo, Avena fatua; conditions: Avena fatua, 504 h, 20 g/ha, visual assessment about 3 weeks after treatment, 100% = plants have died, 0% = like control plants
Method in brief: as §2

[18] = system: ECHCG; experiment: Post-emergence herbicidal action against ECHCG; assay type: in vivo, Echinochloa crus-galli; conditions: Echinochloa crus-galli, 504 h
Method in brief: as §2

[19] = system: MATIN; experiment: Post-emergence herbicidal action against MATIN; assay type: in vivo, Matricaria inodora; conditions: Tripleurospermum inodorum, 504 h, dosage 20 g/ha
Method in brief: as §2

[20] = system: PHBPU; experiment: Post-emergence herbicidal action against PHBPU; assay type: in vivo, Pharbitis purpurea; conditions: Ipomoea purpurea, 504 h
Method in brief: as §2

[21] = system: SETVI; experiment: Post-emergence herbicidal action against SETVI; assay type: in vivo, Setaria viridis; conditions: Setaria viridis, 504 h, dosage 20 g/ha
Method in brief: as §2

[22] = system: STEME; experiment: Post-emergence herbicidal action against STEME; assay type: in vivo, Stellaria media; conditions: Stellaria media, 504 h
Method in brief: as §2

[23] = system: VIOTR; experiment: Post-emergence herbicidal action against VIOTR; assay type: in vivo, Viola tricolor; conditions: Viola tricolor, 504 h
Method in brief: as §2

[24] = system: DIGSA; experiment: Post-emergence herbicidal action against DIGSA; assay type: in vivo, Digitaria sanguinalis; conditions: Digitaria sanguinalis, 504 h
Method in brief: as §2

[25] = 80 g/ha, scored visually after 3 weeks vs untreated controls (100% = plants have died, 0% = like control plants)
[26] = 20 g/ha, scored visually after 3 weeks, 100% = plants have died, 0% = like control plants

CCNC(=O)c1c(C(F)(F)F)ccc(C(=O)Nc2nnnn2C)c1Cl [Example 1-130] gave a pest or weed control at 80 g/ha [1, 25] of 100%, a pest or weed control at 20 g/ha ([1]; dosage 20 g/ha, scored visually after 3 weeks vs untreated controls, 100% = plants have died, 0% = like control plants, read-out: Pre-emergence action against ABUTH (herbicidal activity in percent)) of 100% and a pest or weed control at 80 g/ha [2, 25] of 100%. It also gave a pest or weed control at 20 g/ha [2, 26] of 100%, a pest or weed control at 20 g/ha ([3]; 20 g/ha) of 100% and a pest or weed control at 80 g/ha ([3]; 80 g/ha) of 100%. For the same molecule, the pest or weed control at 80 g/ha ([4]; 80 g/ha) was 100%, the pest or weed control at 20 g/ha [4, 26] was 100% and the pest or weed control at 20 g/ha ([5]; 20 g/ha) was 90%. It also gave a pest or weed control at 80 g/ha ([5]; 80 g/ha) of 100%, a pest or weed control at 80 g/ha [6] of 90% and a pest or weed control at 80 g/ha [7] of 100%. It also gave a pest or weed control at 20 g/ha ([8]; dosage 20 g/ha) of 100%, a pest or weed control at 80 g/ha ([8]; dosage 80 g/ha) of 100% and a pest or weed control at 20 g/ha ([9]; dosage 20 g/ha) of 90%. For the same molecule, the pest or weed control at 80 g/ha ([9]; dosage 80 g/ha) was 100%, the pest or weed control at 20 g/ha ([10]; dosage 20 g/ha) was 100% and the pest or weed control at 80 g/ha ([10]; dosage 80 g/ha) was 100%. The pest or weed control at 80 g/ha [11] was 80%, the pest or weed control at 20 g/ha ([12]; dosage 20 g/ha) was 100% and the pest or weed control at 80 g/ha ([12]; dosage 80 g/ha) was 100%. It also gave a pest or weed control at 20 g/ha ([13]; dosage 20 g/ha) of 100%, a pest or weed control at 80 g/ha ([13]; dosage 80 g/ha) of 100% and a pest or weed control at 5 g/ha ([14]; dosage 5 g/ha) of 90%. The pest or weed control at 20 g/ha ([14]; dosage 20 g/ha) was 90%, the pest or weed control at 20 g/ha [15] was 80% and the pest or weed control at 20 g/ha [16] was 90%. It also gave a pest or weed control at 20 g/ha [17] of 80%, a pest or weed control at 5 g/ha ([18]; dosage 5 g/ha) of 80% and a pest or weed control at 20 g/ha ([18]; dosage 20 g/ha) of 80%. For the same molecule, the pest or weed control at 20 g/ha [19] was 80%, the pest or weed control at 5 g/ha ([20]; dosage 5 g/ha) was 80% and the pest or weed control at 20 g/ha ([20]; dosage 20 g/ha) was 90%. The pest or weed control at 20 g/ha [21] was 80%, the pest or weed control at 20 g/ha ([22]; 20 g/ha) was 80% and the pest or weed control at 5 g/ha ([22]; dosage 5 g/ha) was 80%. The pest or weed control at 5 g/ha ([23]; 5 g/ha) was 90%, the pest or weed control at 20 g/ha ([23]; 20 g/ha) was 90% and the pest or weed control at 5 g/ha ([24]; 5 g/ha) was 90%. For the same molecule, the pest or weed control at 20 g/ha ([24]; 20 g/ha) was 90%.
